Data as given in ChEMBL document CHEMBL1255296, “Effect of 14-membered-ring macrolides on production of interleukin-8 mediated by protease-activated receptor 2 in human keratinocytes” (Antimicrob Agents Chemother, 2008).
Activity calls are given as the source filed them. No cut-off for these calls is given here.

Key:
[1] = target: Proteinase-activated receptor 2 (Homo sapiens) (UniProt P55085); test: Inhibition of PAR2-mediated SLIGKV-NH2-induced interleukin-8 production in normal human epidermal keratinocytes preincubated for 24 hrs by ELISA
Proteinase-activated receptor 2 (Homo sapiens), sequence (P55085 whole entry): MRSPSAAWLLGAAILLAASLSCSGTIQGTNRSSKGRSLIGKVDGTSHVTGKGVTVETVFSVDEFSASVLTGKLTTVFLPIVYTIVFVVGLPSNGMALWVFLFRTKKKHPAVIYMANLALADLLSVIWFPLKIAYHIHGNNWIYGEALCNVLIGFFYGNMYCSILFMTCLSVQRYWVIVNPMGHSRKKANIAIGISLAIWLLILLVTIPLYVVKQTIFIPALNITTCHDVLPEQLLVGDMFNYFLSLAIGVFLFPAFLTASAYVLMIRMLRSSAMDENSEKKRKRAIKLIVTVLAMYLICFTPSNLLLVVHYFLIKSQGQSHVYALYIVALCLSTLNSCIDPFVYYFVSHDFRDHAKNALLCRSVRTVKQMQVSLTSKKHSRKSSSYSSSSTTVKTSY

[2] = target: Proteinase-activated receptor 2 (Homo sapiens) (UniProt P55085); test: Inhibition of PAR2-mediated IL1-beta and SLIGKV-NH2-induced interleukin-8 production in normal human epidermal keratinocytes at 10 uM by ELISA
[3] = target: Proteinase-activated receptor 2 (Homo sapiens) (UniProt P55085); test: Inhibition of PAR2-mediated SLIGKV-NH2-induced interleukin-8 production in normal human epidermal keratinocytes up to 100 uM preincubated for 24 hrs by ELISA
[4] = Toxicity in normal human epidermal keratinocytes assessed as effect on cell viability at 10 uM after 72 hrs by colorimetric assay; type: cell-based; settings: keratinocyte
[5] = Toxicity in normal human epidermal keratinocytes assessed as effect on cell viability at 100 uM after 72 hrs by colorimetric assay; type: cell-based; settings: keratinocyte
Keratinocyte [6] = test: Effect on PAR2 gene expression in normal human epidermal keratinocytes assessed as effect on cell viability at 10 uM after 72 hrs; type: functional, cell-based
Keratinocyte [7] = test: Effect on PAR2 gene expression in normal human epidermal keratinocytes assessed as effect on cell viability at 100 uM after 72 hrs; type: functional, cell-based
[8] = target: Proteinase-activated receptor 2 (Homo sapiens) (UniProt P55085); test: Inhibition of PAR2-mediated SLIGKV-NH2-induced interleukin-8 production in normal human epidermal keratinocytes at 10 uM preincubated for 24 hrs by ELISA
[9] = target: Proteinase-activated receptor 2 (Homo sapiens) (UniProt P55085); test: Inhibition of PAR2-mediated SLIGKV-NH2-induced interleukin-8 production in normal human epidermal keratinocytes at 100 uM preincubated for 24 hrs by ELISA
[10] = target: Proteinase-activated receptor 2 (Homo sapiens) (UniProt P55085); test: Inhibition of PAR2-mediated SLIGKV-NH2-induced interleukin-8 production in normal human epidermal keratinocytes at 5 uM preincubated for 24 hrs by ELISA

Compound	inhibition [1]	inhibition [2]	inhibition [3]	inhibition [8]	inhibition [9]	inhibition [10]	Activity [4]	Activity [5]	Activity (Keratinocyte [6])	Activity (Keratinocyte [7])
CO[C@H]1C[C@H](O[C@H]2[C@H](C)[C@@H](O[C@@H]3O[C@H](C)C[C@H](N(C)C)[C@H]3O)[C@@H](C)C[C@@]3(CO3)C(=O)[C@H](C)[C@@H](O)[C@@H](C)[C@@H](C)OC(=O)[C@@H]2C)O[C@@H](C)[C@@H]1O	inactive	–	–	–	–	–	–	–	–	–
CC[C@H]1OC(=O)[C@H](C)[C@@H](O[C@H]2C[C@@](C)(OC)[C@@H](O)[C@H](C)O2)[C@H](C)[C@@H](O[C@@H]2O[C@H](C)C[C@H](N(C)C)[C@H]2O)[C@](C)(O)C[C@@H](C)C(=O)[C@H](C)[C@@H](O)[C@]1(C)O [ERYTHROMYCIN]	–	Active	–	Active	Active	Active	Non-toxic	Non-toxic	inactive	inactive
CC[C@H]1OC(=O)[C@H](C)[C@@H](O[C@H]2C[C@@](C)(OC)[C@@H](O)[C@H](C)O2)[C@H](C)[C@@H](O[C@@H]2O[C@H](C)C[C@H](N(C)C)[C@H]2O)[C@](C)(O)C[C@@H](C)/C(=N\OCOCCOC)[C@H](C)[C@@H](O)[C@]1(C)O [ROXITHROMYCIN]	–	Active	–	Active	Active	–	Non-toxic	Non-toxic	inactive	inactive
SPIRAMYCIN	inactive	–	–	–	–	–	–	–	–	–

Continued, in another order:

inhibition [1]	inhibition [2]	inhibition [3]	inhibition [8]	inhibition [9]	inhibition [10]	Compound	Activity [4]	Activity [5]	Activity (Keratinocyte [6])	Activity (Keratinocyte [7])
inactive	–	–	–	–	–	CO[C@@H]1[C@@H](O[C@@H]2O[C@H](C)[C@@H](O[C@H]3C[C@@](C)(O)[C@@H](OC(=O)CC(C)C)[C@H](C)O3)[C@H](N(C)C)[C@H]2O)[C@@H](CC=O)C[C@@H](C)[C@@H](O)/C=C/C=C/C[C@@H](C)OC(=O)C[C@H]1OC(C)=O	–	–	–	–
–	Active	inactive	–	–	–	CC[C@H]1OC(=O)[C@H](C)[C@@H](O[C@H]2C[C@@](C)(OC)[C@@H](O)[C@H](C)O2)[C@H](C)[C@@H](O[C@@H]2O[C@H](C)C[C@H](N(C)C)[C@H]2O)[C@](C)(OC)C[C@@H](C)C(=O)[C@H](C)[C@@H](O)[C@]1(C)O [CLARITHROMYCIN]	Non-toxic	Non-toxic	inactive	inactive
